These results are taken from patent US8664257B2, “Oxygen-substituted 3-heteroaroylamino-propionic acid derivatives and their use as pharmaceuticals” (Sanofi, priority 2010, dated 2014).

A value given as a limit tells only on which side of the number the result lay.

In one experiment the target is T1, Recombinant human cathepsin A (Homo sapiens, UniProt P10619).
T1 construct: Recombinant human cathepsin A (residues 29-480, with a C-terminal 10-His tag); 10-His (C); purchased R&D Systems 1049-SE
T1 sequence (P10619 29-312 limits assumed): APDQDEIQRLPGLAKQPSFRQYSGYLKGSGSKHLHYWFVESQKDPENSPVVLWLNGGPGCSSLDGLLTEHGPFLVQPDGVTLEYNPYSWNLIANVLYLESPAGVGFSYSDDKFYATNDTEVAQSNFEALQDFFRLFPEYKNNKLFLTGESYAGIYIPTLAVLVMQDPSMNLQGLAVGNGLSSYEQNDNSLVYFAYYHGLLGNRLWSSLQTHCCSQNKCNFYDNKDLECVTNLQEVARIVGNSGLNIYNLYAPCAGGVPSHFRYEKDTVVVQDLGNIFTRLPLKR
T1 sequence (P10619 327-480 limits assumed): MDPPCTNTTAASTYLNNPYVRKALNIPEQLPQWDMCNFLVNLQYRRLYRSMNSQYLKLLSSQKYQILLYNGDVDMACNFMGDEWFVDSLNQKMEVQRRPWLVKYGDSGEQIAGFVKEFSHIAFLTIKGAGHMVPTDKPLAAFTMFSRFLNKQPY
In words: Cathepsin A inhibitory activity. In kind it is biochemical. The following applies: pharmacological test "Cathepsin A inhibitory activity"; IC50 given as class A/B/C; read-out: Activity (2): Cathepsin A inhibitory activity, IC50 class. In short, it runs like this: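 Read-out was microfluidic separation of cleaved vs. uncleaved Bodipy FL-bradykinin (2 μM), giving turnover, % inhibition and IC50. Compound and 833 ng/ml enzyme met for 15 min RT in pH 5.5 MES/DTT before substrate (15 min RT). The 29-480 His-tagged human enzyme was first activated by cathepsin L, then E-64 (10 μM).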
One may read the IC50 as the point on the concentration scale where inhibition reaches its midpoint. In the case of `O=C(O)CC(NC(=O)c1cc(O)n(-c2cccc(Cl)c2)n1)c1cccc(C(F)(F)F)c1Cl` (centres unmarked) [Example 263], the IC50 was 100 to 1000 nM. On the same count and under the same terms, for `O=C(O)CC(NC(=O)c1cc(O)n(-c2cccc(Cl)c2)n1)c1cccc2c1OCO2` (centres unmarked) [Example 249] the value was 100 to 1000 nM; for `O=C(O)CC(NC(=O)c1cc(O)n(-c2ccccc2Cl)n1)c1cccc(C(F)(F)F)c1Cl` (centres unmarked) [Example 223], 100 to 1000 nM.

Still in this experiment, the particulars now being: read-out: Activity (2): Cathepsin A inhibitory activity (IC50 class).
As to `Cc1ccccc1[C@H](CC(=O)O)NC(=O)c1cc(O)n(-c2ccc(S(N)(=O)=O)cc2)n1` [Example 602], the IC50 lay in the range of 1000 to 30000 nM. As to `O=C(O)C[C@H](NC(=O)c1cc(OCC2CC2)n(-c2ccccc2F)n1)c1cccc(Cl)c1Cl` [Example 702], the IC50 is less than 100 nM. Consider `CCOc1cc(C(=O)N[C@@H](CC(=O)O)c2ccc(Cl)cc2)nn1-c1ccccc1F` [Example 713], for which the half-maximal inhibitory concentration (IC50) is less than 100 nM.

Consider `O=C(O)CC(NC(=O)c1cc(O)n(-c2ccccc2F)n1)c1ccc(-n2cncn2)cc1` (centres unmarked) [Example 550, 3-{[1-(2-Fluoro-phenyl)-5-hydroxy-1H-pyrazole-3-carbonyl]-amino}-3-(4-[1,2,4]triazol-1-yl-phenyl)-propionic acid], for which the IC50 lay within 100 to 1000 nM.

Take `Cc1ccccc1[C@H](CC(=O)O)NC(=O)c1cc(OCCN2CCCC2=O)n(-c2ccccc2F)n1` [Example 639]: the IC50 was less than 100 nM.

As to `Cc1ccc([C@H](CC(=O)O)NC(=O)c2cc(OC[C@@](C)(O)C(C)C)n(-c3ccccc3F)n2)c(C)c1` [Example 772, (S)-3-(2,4-Dimethyl-phenyl)-3-{[1-(2-fluoro-phenyl)-5-((S)-2-hydroxy-2,3-dimethyl-butoxy)-1H-pyrazole-3-carbonyl]-amino}-propionic acid], the IC50 is less than 100 nM. The same measure, in the same setting: to `Cc1ccccc1[C@H](CC(=O)O)NC(=O)c1cc(OCC(C)(C)O)n(-c2ccccc2F)n1` [Example 752] belongs less than 100 nM; to `Cc1ccccc1[C@H](CC(=O)O)NC(=O)c1cc(OC(=O)N(C)C)n(-c2ccccc2F)n1` [Example 614], less than 100 nM; to `Cc1ccccc1[C@H](CC(=O)O)NC(=O)c1cc(OCC2(C)COC2)n(-c2ccccc2F)n1` [Example 663], less than 100 nM. As for `Cc1ccccc1[C@H](CC(=O)O)NC(=O)c1cc(OC[C@](C)(O)C(C)C)n(-c2ccccc2F)n1` [Example 765, (S)-3-{[1-(2-Fluoro-phenyl)-5-((R)-2-hydroxy-2,3-dimethyl-butoxy)-1H-pyrazole-3-carbonyl]-amino}-3-o-tolyl-propionic acid], the IC50 was less than 100 nM. Consider `Cc1cccc([C@H](CC(=O)O)NC(=O)c2cc(OCC3CC3)n(-c3ccccc3F)n2)c1` [Example 690, (S)-3-{[5-Cyclopropylmethoxy-1-(2-fluoro-phenyl)-1H-pyrazole-3-carbonyl]-amino}-3-m-tolyl-propionic acid], for which the IC50 is less than 100 nM. As to `Cc1ccccc1[C@H](CC(=O)O)NC(=O)c1cc(OC[C@H](O)C(C)(C)C)n(-c2ccccc2F)n1` (single isomer, unassigned) [Example 745], the IC50 is less than 100 nM. Same read-out and setting: for `CC(C)C(C)(O)COc1cc(C(=O)N[C@@H](CC(=O)O)c2cccc(F)c2)nn1-c1ccccc1F` (stereo partly drawn) [Example 782, (S)-3-(3-Fluoro-phenyl)-3-{[1-(2-fluoro-phenyl)-5-(2-hydroxy-2,3-dimethyl-butoxy)-1H-pyrazole-3-carbonyl]-amino}-propionic acid] the value was less than 100 nM. With `O=C(O)CC(NC(=O)c1cc(O)n(-c2ccccc2Cl)n1)c1ccc(-n2cccn2)cc1` (centres unmarked) [Example 580], the IC50 lay in the range of 100 to 1000 nM.

Consider `Cc1ccc([C@H](CC(=O)O)NC(=O)c2cc(OC[C@H](O)C(C)(C)C)n(-c3ccccc3F)n2)cc1` [Example 788, (S)-3-{[1-(2-Fluoro-phenyl)-5-((R)-2-hydroxy-3,3-dimethyl-butoxy)-1H-pyrazole-3-carbonyl]-amino}-3-p-tolyl-propionic acid], for which the IC50 was less than 100 nM. With `Cc1ccccc1[C@H](CC(=O)O)NC(=O)c1cc(OC[C@@H](O)C(C)(C)C)n(-c2ccccc2F)n1` [Example 746, (S)-3-{[1-(2-Fluoro-phenyl)-5-((S)-2-hydroxy-3,3-dimethyl-butoxy)-1H-pyrazole-3-carbonyl]-amino}-3-o-tolyl-propionic acid], the IC50 is less than 100 nM.

The same experiment, now with this note: read-out: Activity (2): Cathepsin A inhibitory activity, IC50 class.
For `COc1ccc(C(CC(=O)O)NC(=O)c2cc(O)n(-c3ccccc3F)n2)c(C)c1` (centres unmarked) [Example 395], the IC50 lay within 100 to 1000 nM. In the case of `Cc1ccc(C)c(-n2nc(C(=O)NC(CC(=O)O)c3ccc(-c4ccccc4)cc3)cc2O)c1` (centres unmarked) [Example 55], the IC50 was 100 to 1000 nM.

For the molecule `CC(C)(C)C(=O)COc1cc(C(=O)N[C@@H](CC(=O)O)c2cccc(Cl)c2Cl)nn1-c1ccccc1F` [Example 839, (S)-3-(2,3-Dichloro-phenyl)-3-{[5-(3,3-dimethyl-2-oxo-butoxy)-1-(2-fluoro-phenyl)-1H-pyrazole-3-carbonyl]-amino}-propionic acid], the IC50 was less than 100 nM. Same read-out and setting: to `O=C(O)C[C@H](NC(=O)c1cc(O)n(-c2ccccc2F)n1)c1cccc(Cl)c1Cl` [Example 399] belongs less than 100 nM; to `CC(C)(C)C(=O)COc1cc(C(=O)N[C@@H](CC(=O)O)c2cccc(Cl)c2)nn1-c1ccccc1F` [Example 796, (S)-3-(3-Chloro-phenyl)-3-{[5-(3,3-dimethyl-2-oxo-butoxy)-1-(2-fluoro-phenyl)-1H-pyrazole-3-carbonyl]-amino}-propionic acid], less than 100 nM; to `O=C(O)C[C@H](NC(=O)c1cc(O)n(-c2ccc(F)cc2)n1)c1cccc(Cl)c1` [Example 350], 100 to 1000 nM. As for `Cc1ccccc1[C@H](CC(=O)O)NC(=O)c1cc(OC[C@@](C)(O)C(C)C)n(-c2ccccc2F)n1` (single isomer, unassigned) [Example 833], the IC50 fell in the range of 1000 to 30000 nM. Turning to `O=C(O)CC(NC(=O)c1cc(O)n(-c2ccc(F)cc2)n1)c1cccc(Cl)c1` (centres unmarked) [Example 338], the IC50 lay within 100 to 1000 nM. In the case of `Cc1ccc(C)c(-n2nc(C(=O)NC(CC(=O)O)C3CCCCC3)cc2O)c1` (centres unmarked) [Example 37], the IC50 was in the range of 1000 to 30000 nM. Consider `O=C(O)C[C@H](NC(=O)c1cc(O)n(-c2ccccc2Cl)n1)c1cccc(F)c1` [Example 393], for which the IC50 fell in the range of 100 to 1000 nM. As to `O=C(O)CC(NC(=O)c1cc(O)n(-c2ccc(F)cc2)n1)c1ccc(-c2ccccc2)cc1` (centres unmarked) [Example 365], the 50% inhibitory concentration (IC50) was 100 to 1000 nM. `O=C(O)CC(NC(=O)c1cc(O)n(-c2cccc(F)c2)n1)c1ccc(-c2ccc(F)cc2)cc1` (centres unmarked) [Example 333]: the IC50 was 1000 to 30000 nM. For the molecule `O=C(O)CC(NC(=O)c1cc(O)n(-c2ccc(Cl)cc2)n1)c1cccc(C(F)(F)F)c1Cl` (centres unmarked) [Example 289], the IC50 lay in the range of 100 to 1000 nM. Regarding `CC(C)(C)C(O)COc1cc(C(=O)N[C@H](CC(=O)O)c2ccc(Cl)cc2)nn1-c1ccccc1F` (stereo partly drawn) [Example 815, (R)-3-(4-Chloro-phenyl)-3-{[1-(2-fluoro-phenyl)-5-(2-hydroxy-3,3-dimethyl-butoxy)-1H-pyrazole-3-carbonyl]-amino}-propionic acid], the IC50 is less than 100 nM. With `O=C(O)C[C@H](NC(=O)c1cc(O)n(-c2ccccc2F)n1)c1ccc(Cl)cc1` [Example 120], the IC50 lay in the range of 100 to 1000 nM.

Still in this experiment, the particulars now being: recombinant human cathepsin A 833 ng/ml, Bodipy FL-labeled bradykinin 2 μM, pH 5.5; read-out: CATH-A IC50.
Take `O=C(O)CC(NC(=O)c1cc(O)n(-c2cccc(Cl)c2)n1)c1cccc2c1OC(F)(F)O2` (centres unmarked) [Example 464, 3-{[1-(3-Chloro-phenyl)-5-hydroxy-1H-pyrazole-3-carbonyl]-amino}-3-(2,2-difluoro-benzo[1,3]dioxol-4-yl)-propionic acid]: the IC50 was determined as 274 nM. The same measure, in the same setting: for `O=C(O)CC(NC(=O)c1cc(O)n(-c2ccccc2F)n1)c1ccc(-n2cncn2)cc1` (centres unmarked) [Example 550, 3-{[1-(2-Fluoro-phenyl)-5-hydroxy-1H-pyrazole-3-carbonyl]-amino}-3-(4-[1,2,4]triazol-1-yl-phenyl)-propionic acid] the value was 635 nM.

On to `O=C(O)CC(NC(=O)c1cc(O)n(-c2ccc(Cl)cc2)n1)c1cc(F)ccc1C(F)(F)F` (centres unmarked) [Example 473, 3-{[1-(4-Chloro-phenyl)-5-hydroxy-1H-pyrazole-3-carbonyl]-amino}-3-(5-fluoro-2-trifluoromethyl-phenyl)-propionic acid], for which the IC50 was determined as 1730 nM. `Cc1ccccc1[C@H](CC(=O)O)NC(=O)c1cc(OC[C@H](O)C(C)(C)C)n(-c2ccccc2F)n1` (single isomer, unassigned) [Example 745]: the IC50 is 4.7 nM.

Still in this experiment, the particulars now being: recombinant human cathepsin A; read-out: Activity (2): Cathepsin A inhibitory activity, IC50 class.
Consider `O=C(O)CC(NC(=O)c1cc(O)n(-c2cccc(Cl)c2)n1)c1cccc2c1OC(F)(F)O2` (centres unmarked) [Example 464, 3-{[1-(3-Chloro-phenyl)-5-hydroxy-1H-pyrazole-3-carbonyl]-amino}-3-(2,2-difluoro-benzo[1,3]dioxol-4-yl)-propionic acid], for which the IC50 lay in the range of 100 to 1000 nM. Turning to `O=C(O)CC(NC(=O)c1cc(O)n(-c2ccc(Cl)cc2)n1)c1cc(F)ccc1C(F)(F)F` (centres unmarked) [Example 473, 3-{[1-(4-Chloro-phenyl)-5-hydroxy-1H-pyrazole-3-carbonyl]-amino}-3-(5-fluoro-2-trifluoromethyl-phenyl)-propionic acid], the IC50 lay in the range of 1000 to 30000 nM.

Turning to `COc1cccc([C@H](CC(=O)O)NC(=O)c2cc(O)n(-c3cccc(F)c3)n2)c1` [Example 429], the IC50 lay in the range of 100 to 1000 nM. As for `COc1cc(C(=O)N[C@@H](CC(=O)NCc2ccncc2)c2ccccc2C)nn1-c1ccccc1F` [Example 916, 1-(2-Fluoro-phenyl)-5-methoxy-1H-pyrazole-3-carboxylic acid {(S)-2-[(pyridin-4-ylmethyl)-carbamoyl]-1-o-tolyl-ethyl}-amide], the IC50 lay in the range of 1000 to 30000 nM. Consider `COc1cccc([C@H](CC(=O)O)NC(=O)c2cc(O)n(-c3cccc(Cl)c3)n2)c1` [Example 413], for which the concentration for half-maximal inhibition (IC50) was in the range of 1000 to 30000 nM.

Consider `COc1ccc(C(CC(=O)O)NC(=O)c2cc(O)n(-c3ccc(F)cc3)n2)c(OC)c1` (centres unmarked) [Example 436], for which the IC50 lay in the range of 1000 to 30000 nM.
